Source: patent US9290511B2, “Thieno-pyrimidines, useful as potassium channel inhibitors” (XENTION LIMITED, priority 2011, dated 2016)

Biological target: T1, Kir3.1/3.4 (Rattus norvegicus, UniProt P48548+P63251)
T1 construct: expressed in transfected cells
T1 sequence (P63251 1-501): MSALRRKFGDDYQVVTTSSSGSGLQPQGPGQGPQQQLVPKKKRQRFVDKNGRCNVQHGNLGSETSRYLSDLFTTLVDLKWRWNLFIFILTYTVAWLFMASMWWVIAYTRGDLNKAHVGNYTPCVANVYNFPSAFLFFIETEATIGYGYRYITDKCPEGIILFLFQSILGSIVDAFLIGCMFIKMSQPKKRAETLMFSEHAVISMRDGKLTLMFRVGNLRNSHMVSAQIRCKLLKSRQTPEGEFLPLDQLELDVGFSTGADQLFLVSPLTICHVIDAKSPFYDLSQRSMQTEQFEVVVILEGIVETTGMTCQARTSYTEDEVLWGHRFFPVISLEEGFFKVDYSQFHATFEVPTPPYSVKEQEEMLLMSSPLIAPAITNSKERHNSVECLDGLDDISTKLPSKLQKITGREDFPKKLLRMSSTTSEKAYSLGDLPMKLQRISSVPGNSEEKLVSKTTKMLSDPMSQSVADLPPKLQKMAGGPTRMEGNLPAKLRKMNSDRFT
T1 sequence (P48548 1-419): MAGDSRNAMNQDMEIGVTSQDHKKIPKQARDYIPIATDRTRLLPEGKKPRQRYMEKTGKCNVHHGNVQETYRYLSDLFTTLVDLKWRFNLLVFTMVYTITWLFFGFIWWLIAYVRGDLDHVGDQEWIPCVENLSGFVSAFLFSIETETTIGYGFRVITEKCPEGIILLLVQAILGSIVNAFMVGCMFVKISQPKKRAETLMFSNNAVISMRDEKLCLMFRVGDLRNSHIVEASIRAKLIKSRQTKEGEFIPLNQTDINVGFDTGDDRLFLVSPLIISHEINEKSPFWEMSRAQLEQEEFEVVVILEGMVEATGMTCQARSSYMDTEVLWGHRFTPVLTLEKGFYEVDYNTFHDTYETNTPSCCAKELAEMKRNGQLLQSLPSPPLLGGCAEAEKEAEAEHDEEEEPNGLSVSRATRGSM
Experiment: Kir3.1/3.4 Electrophysiology Method (manual whole-cell patch clamp)
Type: cell-based
Conditions: Electrophysiology Method (TABLE 1)
In short: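 Manual whole-cell patch clamp on HEK293 cells stably expressing rat Kir3.1/3.4, with GTPγS in the pipette. Cells were held at −60 mV and stepped to +60 mV, then ramped to −140 mV every 10 s. Steady-state inhibition at −140 mV was measured after subtracting leak recorded in zero-K+ bath.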

Compound	IC50 [nM]
O=C1CCCN1c1sc2ncnc(N3CCC(COCCN4CCCC4)CC3)c2c1-c1ccccc1 [Example 163]	< 500
O=[N+]([O-])c1ccc(-c2csc3ncnc(N4CCC(COCCN5CCCC5)CC4)c23)cc1 [Example 46, 5-(4-nitrophenyl)-4-[4-(2-pyrrolidin-1-ylethoxymethyl)-1-piperidyl]thieno[2,3-d]pyrimidine]	< 500
NC(=O)C1CCCN1CC1CCN(c2ncnc3scc(-c4ccccc4)c23)CC1 (stereo not drawn) [Example 247]	< 500
CN(C)C1CCN(c2nc(NCCN3CCCC3)nc3scc(-c4ccccc4)c23)CC1 [Example 179]	500 to 3000
CCOc1ncccc1-c1csc2ncnc(N3CCC(COCCN4CCCC4)CC3)c12 [Example 331]	< 500
CN(C)C(=O)c1ccccc1-c1csc2ncnc(N3CCC(COCCN4CCCC4)CC3)c12 [Example 330]	3000 to 10000
COCC1CC2CCC(C1)N2c1nc(N2CCOCC2)c2c(-c3ccccc3)csc2n1 (stereo not drawn) [Example 300]	500 to 3000
Cc1csc2ncnc(N3CCC(CNCCC4CCCN4C)CC3)c12 (stereo not drawn) [Example 243]	< 500
CC(C)c1c(C(=O)N(C)C)sc2ncnc(N3CCC(COCCN4CCCC4)CC3)c12 [Example 133]	500 to 3000
FC(F)(F)C1CCN(CC2CCN(c3ncnc4scc(-c5ccccc5)c34)CC2)CC1 [Example 99, 5-phenyl-4-[4-[[4-(trifluoromethyl)-1-piperidyl]methyl]-1-piperidyl]thieno[2,3-d]pyrimidine]	500 to 3000
CNC(=O)c1sc2ncnc(N3C4CCC3CC(COCCN3CCCC3)C4)c2c1-c1ccccc1 (stereo not drawn) [Example 361]	< 500
F[C@@H]1CCN(CCOCC2CCN(c3ncnc4scc(-c5ccccc5)c34)CC2)C1 [Example 32, 4-[4-[2-[(3R)-3-fluoropyrrolidin-1-yl]ethoxymethyl]-1-piperidyl]-5-phenyl-thieno[2,3-d]pyrimidine]	< 500
OCc1sc2ncnc(N3CCC(COCCN4CCCC4)CC3)c2c1-c1ccccc1 [Example 281, [5-phenyl-4-[4-(2-pyrrolidin-1-ylethoxymethyl)-1-piperidyl]thieno[2,3-d]pyrimidin-6-yl]methanol]	< 500
CC1CCN(CC2CC(c3ccccc3)N(c3ncnc4scc(-c5ccccc5)c34)C2)C1 (stereo not drawn) [Example 198]	< 500
Fc1ccc(-c2csc3ncnc(N4CCC(COCCN5CCOCC5)CC4)c23)cc1 [Example 21, 4-[2-[[1-[5-(4-fluorophenyl)thieno[2,3-d]pyrimidin-4-yl]-4-piperidyl]methoxy]ethyl]morpholine]	< 500
O=C(CNCC1CCN(c2ncnc3scc(-c4ccccc4)c23)CC1)N1CCCC1 [Example 105]	< 500

Compound	IC50 [nM]
N-(2-pyrrolidin-1-ylethyl)thieno[2,3-d]pyrimidin-2-amine [Example 127]	< 500
c1ccc(-c2csc3ncnc(N4CCC(COC5CCC5)CC4)c23)cc1 [Example 9, 4-[4-(cyclobutoxymethyl)-1-piperidyl]-5-phenyl-thieno[2,3-d]pyrimidine]	< 500
CN1CCC(N(C)CC2CCN(c3ncnc4scc(-c5ccccc5)c34)CC2)C1 (stereo not drawn) [Example 202]	< 500
COC1CC2CCC(C1)N2c1nc(OC2CC3CC2CN3)nc2scc(-c3ccccc3)c12 (stereo not drawn) [Example 348]	< 500
CC(=O)NC1CCN(c2nc(N3CCC(COCCN4CCCC4)CC3)c3c(-c4ccccc4)csc3n2)C1 (stereo not drawn) [Example 257]	< 500
CC(=O)NC1CCN(CC2CCN(c3ncnc4scc(-c5ccccc5)c34)CC2)C1 (stereo not drawn) [Example 253]	< 500
CN1CCN(c2nc(N3CCC(CNCCC4CCCN4C)CC3)c3c(-c4ccccc4)csc3n2)CC1 (stereo not drawn) [Example 114]	500 to 3000
CN1CCN(c2nc(N3CCC(CN(CCO)CCO)CC3)c3c(-c4ccccc4)csc3n2)CC1 [Example 107]	500 to 3000
CN1CCC(N(C)CC2CCN(c3ncnc4sc(C(=O)N(C)C)c(-c5ccccc5)c34)CC2)C1 (stereo not drawn) [Example 136]	500 to 3000
Cc1csc2ncnc(N3CC(CNCCC4CCCN4C)CC3c3ccccc3)c12 (stereo not drawn) [Example 210]	< 500
c1ccc(-c2csc3nc(OC4CC5CC4CN5)nc(N4C5CCC4COC5)c23)cc1 (stereo not drawn) [Example 349, 8-[2-(2-azabicyclo[2.2.1]heptan-5-yloxy)-5-phenyl-thieno[2,3-d]pyrimidin-4-yl]-3-oxa-8-azabicyclo[3.2.1]octane]	< 500
CC1CCN(CC2CCN(c3ncnc4scc(-c5ccccc5)c34)CC2)C1 (stereo not drawn) [Example 50, 4-[4-[(3-methylpyrrolidin-1-yl)methyl]-1-piperidyl]-5-phenyl-thieno[2,3-d]pyrimidine]	500 to 3000
c1ccc(-c2csc3ncnc(N4CCC(CNCCC5CCCN5)CC4)c23)cc1 (stereo not drawn) [Example 85, N-[[1-(5-phenylthieno[2,3-d]pyrimidin-4-yl)-4-piperidyl]methyl]-2-pyrrolidin-2-yl-ethanamine]	500 to 3000
Fc1ccc(-c2csc3ncnc(N4CC5C(COCCN6CC7CC6CO7)C5C4)c23)cc1 (stereo not drawn) [Example 48, 5-[2-[[3-[5-(4-fluorophenyl)thieno[2,3-d]pyrimidin-4-yl]-3-azabicyclo[3.1.0]hexan-6-yl]methoxy]ethyl]-2-oxa-5-azabicyclo[2.2.1]heptane]	< 500
c1ccc(-c2csc3ncnc(N4CCC(CNCc5ccccn5)CC4)c23)cc1 [Example 66, N-[[1-(5-phenylthieno[2,3-d]pyrimidin-4-yl)-4-piperidyl]methyl]-1-(2-pyridyl)methanamine]	< 500

Results, then the compound that gave them:

IC50 [nM]	Compound
< 500	Fc1ccc(-c2csc3ncnc(N4CC5C(COCCN6CC[C@H](F)C6)C5C4)c23)cc1 (stereo partly drawn) [Example 47, 5-(4-fluorophenyl)-4-[6-[2-[(3S)-3-fluoropyrrolidin-1-yl]ethoxymethyl]-3-azabicyclo[3.1.0]hexan-3-yl]thieno[2,3-d]pyrimidine]
500 to 3000	c1ccc(-c2csc3ncnc(N4CCCC(CNC5CCC5)C4)c23)cc1 (stereo not drawn) [Example 207]
< 500	c1ccc(-c2csc3ncnc(N4CCC(CNCC5CC5)CC4)c23)cc1 [Example 49, 1-cyclopropyl-N-[[1-(5-phenylthieno[2,3-d]pyrimidin-4-yl)-4-piperidyl]methyl]methanamine]
< 500	c1ccc(-c2csc3ncnc(N4CC[C@@H](COCCN5CCCC5)C4)c23)cc1 [Example 262]
500 to 3000	O=C1CN(c2nc(N3CCC(CNC4CCC4)CC3)c3c(-c4ccccc4)csc3n2)CCN1 [Example 125]
< 500	OCC(Cc1ccccc1)NCC1CCN(c2ncnc3scc(-c4ccccc4)c23)CC1 (stereo not drawn) [Example 57, 3-phenyl-2-[[1-(5-phenylthieno[2,3-d]pyrimidin-4-yl)-4-piperidyl]methylamino]propan-1-ol]
< 500	CC(C)c1csc2ncnc(N3CCC(CNCCC4CCCN4C)CC3)c12 (stereo not drawn) [Example 242]
< 500	N#Cc1sc2ncnc(N3CCC(COCCN4CCCC4)CC3)c2c1-c1ccccc1 [Example 167, 5-phenyl-4-[4-(2-pyrrolidin-1-ylethoxymethyl)-1-piperidyl]thieno[2,3-d]pyrimidine-6-carbonitrile]
500 to 3000	OCC1CCN(CC2CCN(c3ncnc4scc(-c5ccccc5)c34)CC2)C1 (stereo not drawn) [Example 95, [1-[[1-(5-phenylthieno[2,3-d]pyrimidin-4-yl)-4-piperidyl]methyl]pyrrolidin-3-yl]methanol]
< 500	COCC1CCN(c2nc(NCCN(C)C)nc3scc(-c4ccccc4)c23)CC1 [Example 173]
< 500	OCC1(NCC2CCN(c3ncnc4scc(-c5ccccc5)c34)CC2)CCCC1 [Example 54, [1-[[1-(5-phenylthieno[2,3-d]pyrimidin-4-yl)-4-piperidyl]methylamino]cyclopentyl]methanol]
< 500	COC1CCN(CC2CCN(c3ncnc4scc(-c5ccccc5)c34)CC2)C1 (stereo not drawn) [Example 68, 4-[4-[(3-methoxypyrrolidin-1-yl)methyl]-1-piperidyl]-5-phenyl-thieno[2,3-d]pyrimidine]
< 500	NC(=O)C1CN(c2nc(N3CCC(COCCN4CCCC4)CC3)nc3scc(-c4ccccc4)c23)CCO1 (stereo not drawn) [Example 305]
500 to 3000	c1ccc(-c2csc3ncnc(N4CCC(COCCN5CCCC5)CC4)c23)nc1 [Example 320]
< 500	Cn1ccnc1CCNCC1CCN(c2ncnc3scc(-c4ccccc4)c23)CC1 [Example 221]
500 to 3000	c1ccc(-c2csc3ncnc(N4CC(COCCN5CCCC5)C4)c23)cc1 [Example 273]
< 500	NC(=O)C1CCN(CCOC2CC3CC2CN3c2ncnc3scc(-c4ccccc4)c23)C1 (stereo not drawn) [Example 290]
